Marks after values point to notes of the source that are not given here.
How the values were obtained:
[1] = system: CYP3A; conditions: in vivo
Procedure: Cholesterol and 4ß-OH cholesterol were measured in the baseline blood samples before drug administration. All samples were centrifuged for 10 min (4000 rpm) at 4°C and the plasma was stored at −20°C.
Calibration samples for cholesterol were prepared in isooctane with 10% 2-propanol in the concentration range from 1 to 30 μg. Calibration samples for 4ß-hydroxycholesterol were prepared in isooctane with 0.8% 2-propanol from 5 to 100 ng. […] Calibration samples were worked up as the samples, and analyzed together with the unknown samples. […] The concentration in unknown samples was obtained from the regression line.

[2] = system: CYP3A; assay: Twin correlations and structural equation modeling (ACE, AE, CE) of heritability of the CYP3A biomarkers; conditions: in vivo
Procedure: (§1) Predefined primary endpoint was midazolam AUC. All concentrations and pharmacokinetic parameters were determined on three independent occasions to compare intra- versus interindividual variation. […] In structural equation modeling of heritability and in the other multifactorial analyses the individual means from the measurements or parameters obtained on the three occasions were used. Using structural equation analysis, variation was separated into additive genetic (A), common environmental (C), and unique environmental (E) effects. The heritability is the proportion of the variance resulting from the genetic effect (A). In order to investigate the genetic, common environmental, and unique environmental effects of the different traits taken into account, the possible correlation between traits were fitted in multivariate ACE, AE, and CE biometrical models using the mcglm package for multivariate regression analysis in R. As an exploratory analysis, we computed the correlation between MZ and DZ twins based on an unstructured (equal mean and variance for MZ and DZ twins) model. In all models, the mean structure for each trait was specified as a linear function of the covariates age and sex.

[3] = system: CYP3A; assay: Multifactorial analysis of genetic and environmental effects on the CYP3A probe drugs and biomarkers; conditions: in vivo
Procedure: DNA was isolated from whole venous blood by automated solid phase extraction with the EZ1^TM DNA Blood 350 μl Kit using the Bio-robot EZ1^TM (both Qiagen, Hilden, Germany). The CYP3A4^∗1b and ^∗22 alleles as well as the CYP3A5^∗1/^∗3 polymorphism were genotyped by DNA sequencing using fluorescence-labeled dideoxynucleotides and detection via Gene Mapper v3.7 Software® (Applied Biosystems®, Foster City, United States). Zygosity was assessed by analyzing variants in 23 polymorphic genes. Monozygosity was concluded when there were no differences regarding the polymorphisms in both siblings of one twin pair.
as §1

[4] = system: CYP3A; assay: Within- and between-subject variance and genetic component (Kalow) of the 4 CYP3A biomarkers, three occasions
Procedure: as §1

## C[C@]12CCC(=O)C=C1[C@@H](O)C[C@@H]1[C@@H]2[C@@H](O)C[C@@]2(C)[C@H]1CC[C@]2(O)C(=O)CO [6ß-OH-cortisol, 6-ß-hydroxycortisol]
[1]
  Ae (24-h-urine), mean: 222 μg/24 h
[2]
  Variation due to additive genetic (inherited) effects: 31%
  rdz (correlation between DZ twins): 0.50 (0.13)*
  rmz (correlation between MZ twins): 0.68 (0.06)*
[3]
  Coefficient, CYP3A4*22: −127.40
  Coefficient, CYP3A5*3: 0.70
  Coefficient, age: 0.94
  Coefficient, lean body weight: −1.35
  Coefficient, sex: −9.28
  Coefficient, smoking status: −8.66
[3]; po
  Coefficient, oral contraceptives: 3.37
[4]; from intra- and inter-individual variation, independent of twin status, AUC, plasma concentration or 24-h urine Ae
  Genetic component: 0.457
[4]; human, in vivo
  Variance between subjects (Varb) of Ae (24-h-urine): 8141 μg/24 h
[4]; three occasions
  Variance within subjects (Varw) of Ae (24-h-urine): 4247 μg/24 h
